Tests used:
[1] = tested on: PNT1A cell line; assay: Anti-proliferative SRB assay, PNT1A; assay type: cell-based; details: Homo sapiens, PSMA −, Table S3, ± SD
Method: (§1) Half-maximal growth inhibitory concentrations (GI50) were determined using sulforhodamine B (SRB) assay as described elsewhere. In brief, cells were seeded in 96-wells at respective cell densities determined by their cell growth curves. After 24 h, the cells were treated in six replicates with medium or different concentrations of CHKA inhibitors in medium and incubated for another 72 h. On completion of incubation, the cells were fixed with 10% trichloroacetic acid (TCA) and stained with 0.4% SRB in 1% acetic acid. The stained protein was solubilized with 10 mM Tris base and optical density values were measured at 540 nm using a Multiskan® EX Micro plate photometer (Thermo Scientific, Loughborough, UK). Growth inhibition curves were plotted as percentage of the control groups and GI50 data were determined by least squares fitting method using GraphPad Prism 7.0. All the chemicals used in this experiment were obtained from Sigma-Aldrich (Gillingham, UK).

[2] = target: PI3K g (Homo sapiens, UniProt P48736); assay: Lipid kinase screening (ADP-Glo), PI3K g; assay type: biochemical
Method: (§2) The lipid kinase screening for ICL-CCIC-0019, CK14, CK145 (5), CK146 (4) and CK147 (8) (testing concentration for all compounds: 10 μM) was performed by MRC PPU International Centre for Kinase Profiling (Dundee, UK). The lipid kinase screening panel includes 15 human recombinant lipid kinases and the tests used Promega ADP Glo^TM High Throughput Assay kit (Promega, Southampton, UK). For each assay, reference compounds were used as quality control. Finally, mean percentage activity inhibited by compounds and standard deviation for all the repeats were calculated.

[3] = tested on: [18F]D4-FCH uptake in C4-2B cells; assay: [18F]D4-FCH uptake in vitro study, C4-2B; assay type: cell-based; details: Homo sapiens, 1 μM, read-out: inhibition of [18F]D4-FCH uptake (mean of CK14, CK145 and CK146)
Method: HCT-116 and C4-2B cells were seeded at a density of 5 × 10^5 cells per well into 6-well plates and incubated overnight. Cells were treated with 1 or 10 µM CHKA inhibitors (CK14, CK145, CK146 and CK147) for 1 h and pulsed with [^18F]D4-FCH (740 kBq) in presence of inhibitors in 1 mL for an additional hour at 37 °C. Cells were washed with ice-cold PBS three times and lysed in 1 mL RIPA buffer. The radioactivity of 800 µL lysate from each well was counted on a gamma counter (Perkin Elmer, Beaconsfield, UK) and normalized to protein content as determined by BCA assay.

[4] = target: phosphatidylinositol 4-kinase beta (PIK4CB) (Homo sapiens, UniProt Q9UBF8); assay: Lipid kinase screening (ADP-Glo), PIK4CB; assay type: biochemical
Method: as §2

[5] = tested on: HepG2 cells; assay: Anti-proliferative SRB assay, HepG2; assay type: cell-based; details: Homo sapiens, 72 h, Table S2, ± SD
Method: as §1

[6] = target: T1, PIP5K2A (Homo sapiens, UniProt P48426); assay: Lipid kinase screening (ADP-Glo), PIP5K2A; assay type: biochemical
T1 sequence (P48426 1-406): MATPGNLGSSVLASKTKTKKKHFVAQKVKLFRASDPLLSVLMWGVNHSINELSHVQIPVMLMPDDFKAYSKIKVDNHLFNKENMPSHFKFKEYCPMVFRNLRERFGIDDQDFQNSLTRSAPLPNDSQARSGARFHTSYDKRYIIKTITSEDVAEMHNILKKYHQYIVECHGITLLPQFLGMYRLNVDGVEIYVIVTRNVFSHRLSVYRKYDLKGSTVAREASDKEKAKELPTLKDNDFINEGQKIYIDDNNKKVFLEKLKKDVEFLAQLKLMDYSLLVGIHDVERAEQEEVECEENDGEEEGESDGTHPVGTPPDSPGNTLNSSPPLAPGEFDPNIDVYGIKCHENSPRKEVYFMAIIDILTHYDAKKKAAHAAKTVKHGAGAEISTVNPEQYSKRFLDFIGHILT
Method: as §2

[7] = tested on: Caco-2 cells; assay: Anti-proliferative SRB assay, Caco-2; assay type: cell-based; details: Homo sapiens; Caco-2, SRB, 72 h; Table S2, ± SD
Method: as §1

[8] = tested on: 22Rv1 cell line; assay: Anti-proliferative SRB assay, 22Rv1; assay type: cell-based; details: Homo sapiens; 22Rv1, PSMA +; Table S3, ± SD
Method: as §1

[9] = tested on: HCT-116 colorectal cancer cells; assay: Cellular uptake and metabolism study in HCT-116 (HPLC); assay type: cell-based, human; details: HCT-116, 50 μM
Method: The cell pellets were resuspended in 1 mL water: acetonitrile: formic acid (95:5:0.2, v/v/v) and disrupted by an ultrasonic cell disruptor (Soniprep 150, MSE Ltd., London, UK) for 1 min on ice. One hundred microliters of the filtered supernatant from centrifuge (4 °C, 15,000× g) were analyzed by HPLC. Three injections were performed for each sample. […] The HPLC method used in this study is described in Supplementary HPLC method C.

[10] = target: PI3K a (Homo sapiens, UniProt P42336); assay: Lipid kinase screening (ADP-Glo), PI3K a; assay type: biochemical
Method: as §2

[11] = tested on: four cancer cell lines (HCT-116, A549, HepG2, Caco-2); assay: Anti-proliferative SRB assay, mean of four cancer cell lines; assay type: cell-based; details: Homo sapiens
Method: as §1

[12] = Human microsomal metabolic stability assay; assay type: in vitro ADME; details: for Predicted in vivo clearance: scaled from microsomal clearance (liver weight, microsomes per liver, liver blood flow); for Predicted in vivo clearance / PCT_LBF % (percentage of compound removed compared to liver blood flow) / microsomal CLint / half-life: human; for microsomal CLint / half-life: human liver microsome S9, human liver microsome S9; for microsomal CLint: read-out: Human Microsomal Metabolic Stability: Clint; for half-life: read-out: Human Microsomal Metabolic Stability: Half-life
Method: The ADME study for ICL-CCIC-0019, CK14, CK145 (5), CK146 (4) and CK147 (8) was performed by Charles River Drug Discovery Services (Essex, UK).
The predicted in vitro pharmacokinetic characteristics of compounds were evaluated by four ADME assays, namely kinetic solubility assay, metabolic stability assay using human liver microsome S9, permeability and efflux study using the Caco-2 cell line, and matrix stability assay using fasted state simulated gastric fluid (FaSSGF). All tested CHKA inhibitors were highly soluble (>150 μM) in 0.1 M PBS (2% DMSO) (Table 1). […] The in vivo clearance was calculated to predict the actual clearance in humans by scaling the clearance values, which takes into account liver weight, microsomes per liver and liver blood flow. […] In Caco-2 cell permeability assay, drug permeability was investigated and presented as apparent permeability coefficients (Papp) in A to B (A-B, apical to basolateral direction) and B to A (B-A, basolateral to apical direction).

[13] = target: DGK b (Homo sapiens, UniProt Q9Y6T7); assay: Lipid kinase screening (ADP-Glo), DGK b; assay type: biochemical
Method: as §2

[14] = tested on: eight cell lines (22Rv1, C4-2B, LNCap, PC3, PNT1A, R1-AD1, R1-D567, HCT-116); assay: Anti-proliferative SRB assay, mean across eight cell lines; assay type: cell-based; details: Homo sapiens
Method: as §1

[15] = tested on: C4-2B prostate cancer cells; assay: Cellular uptake and metabolism study in C4-2B with or without serum (HPLC); details: 50 μM, 4 h; for mean cellular uptake: mean of ICL-CCIC-0019 and CK146; for detection in cell lysates by HPLC (in words): both FCS groups
Method: Cell lysate sample preparation: C4-2B prostate cancer cells were seeded into cell culture dishes (150 × 25 mm) at a density of 7 × 10^6 per dish. The cells were allowed to settle and grow for another 48 h. The cells were treated with ICL-CCIC-0019, CK146, CK147 and CK148 (50 μM of 7 mL RPMI medium with or without 10% FCS) for 4 h in the incubator. After 4-h incubation, the aliquots of medium were collected (see the medium sample preparation section). Cells were scraped, washed with ice-cold PBS three times and collected by centrifugation (4 °C, 4000× g). The cell pellets were resuspended in 500 μL of chilled acetonitrile:PBS (50:50, v/v) for cell disruption and homogenization. The cell disruption was performed by a Precellys® 24 homogenizer (Bertin Technologies, Montigny-le-Bretonneux, France) at 4 °C. After acetonitrile evaporation at room temperature, 50 μL of cell lysis was taken for protein analysis. Another 100 μL of the supernatant obtained after centrifuge (4 °C, 15,000× g) was resuspended in 100 μL formic acid:water (0.2%, v/v). Next, 100 μL of the filtered solution was analyzed by HPLC system described in Supplementary HPLC method D. Three injections were performed for each sample. Intracellular drug was normalized to cellular protein of each plate using BCA assay. Medium sample preparation for HPLC analysis: 250-μL aliquots of medium (with or without 10% FCS) were transferred into 1.5-mL tube containing 250 μL acetonitrile. After a brief vortex, the tube was placed at 4 °C for 30 min for protein precipitation. One hundred microliters of the resulting supernatant from centrifuge (4 °C, 15,000× g) were resuspended in 100 μL formic acid: water (0.2%, v/v). One hundred microliters of the filtered sample were analyzed by HPLC system described in Supplementary HPLC method D. Three injections were performed for each sample.

Chain of phosphatidylinositol 4-kinase beta (PIK4CB) (Q9UBF8 whole entry): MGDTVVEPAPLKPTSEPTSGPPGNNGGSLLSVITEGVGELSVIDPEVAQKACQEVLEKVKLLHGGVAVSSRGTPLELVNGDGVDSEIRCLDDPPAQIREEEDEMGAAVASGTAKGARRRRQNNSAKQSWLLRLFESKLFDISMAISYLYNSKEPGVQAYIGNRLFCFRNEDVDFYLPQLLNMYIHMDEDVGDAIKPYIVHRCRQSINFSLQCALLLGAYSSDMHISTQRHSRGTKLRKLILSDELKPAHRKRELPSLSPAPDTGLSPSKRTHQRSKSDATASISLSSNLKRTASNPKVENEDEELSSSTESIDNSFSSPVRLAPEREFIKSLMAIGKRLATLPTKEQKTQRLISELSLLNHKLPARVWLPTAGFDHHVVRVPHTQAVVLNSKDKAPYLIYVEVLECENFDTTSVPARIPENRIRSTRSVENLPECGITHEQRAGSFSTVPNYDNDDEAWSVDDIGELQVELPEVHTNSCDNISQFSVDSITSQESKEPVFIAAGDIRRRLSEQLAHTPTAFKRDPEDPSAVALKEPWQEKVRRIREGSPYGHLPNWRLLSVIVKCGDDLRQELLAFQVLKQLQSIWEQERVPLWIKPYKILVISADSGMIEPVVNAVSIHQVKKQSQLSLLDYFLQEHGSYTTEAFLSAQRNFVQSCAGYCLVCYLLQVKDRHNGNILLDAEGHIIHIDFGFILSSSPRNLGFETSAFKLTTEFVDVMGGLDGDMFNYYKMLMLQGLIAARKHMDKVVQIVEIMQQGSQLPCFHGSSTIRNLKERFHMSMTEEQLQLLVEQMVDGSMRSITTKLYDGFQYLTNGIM
Chain of PI3K g (P48736 whole entry): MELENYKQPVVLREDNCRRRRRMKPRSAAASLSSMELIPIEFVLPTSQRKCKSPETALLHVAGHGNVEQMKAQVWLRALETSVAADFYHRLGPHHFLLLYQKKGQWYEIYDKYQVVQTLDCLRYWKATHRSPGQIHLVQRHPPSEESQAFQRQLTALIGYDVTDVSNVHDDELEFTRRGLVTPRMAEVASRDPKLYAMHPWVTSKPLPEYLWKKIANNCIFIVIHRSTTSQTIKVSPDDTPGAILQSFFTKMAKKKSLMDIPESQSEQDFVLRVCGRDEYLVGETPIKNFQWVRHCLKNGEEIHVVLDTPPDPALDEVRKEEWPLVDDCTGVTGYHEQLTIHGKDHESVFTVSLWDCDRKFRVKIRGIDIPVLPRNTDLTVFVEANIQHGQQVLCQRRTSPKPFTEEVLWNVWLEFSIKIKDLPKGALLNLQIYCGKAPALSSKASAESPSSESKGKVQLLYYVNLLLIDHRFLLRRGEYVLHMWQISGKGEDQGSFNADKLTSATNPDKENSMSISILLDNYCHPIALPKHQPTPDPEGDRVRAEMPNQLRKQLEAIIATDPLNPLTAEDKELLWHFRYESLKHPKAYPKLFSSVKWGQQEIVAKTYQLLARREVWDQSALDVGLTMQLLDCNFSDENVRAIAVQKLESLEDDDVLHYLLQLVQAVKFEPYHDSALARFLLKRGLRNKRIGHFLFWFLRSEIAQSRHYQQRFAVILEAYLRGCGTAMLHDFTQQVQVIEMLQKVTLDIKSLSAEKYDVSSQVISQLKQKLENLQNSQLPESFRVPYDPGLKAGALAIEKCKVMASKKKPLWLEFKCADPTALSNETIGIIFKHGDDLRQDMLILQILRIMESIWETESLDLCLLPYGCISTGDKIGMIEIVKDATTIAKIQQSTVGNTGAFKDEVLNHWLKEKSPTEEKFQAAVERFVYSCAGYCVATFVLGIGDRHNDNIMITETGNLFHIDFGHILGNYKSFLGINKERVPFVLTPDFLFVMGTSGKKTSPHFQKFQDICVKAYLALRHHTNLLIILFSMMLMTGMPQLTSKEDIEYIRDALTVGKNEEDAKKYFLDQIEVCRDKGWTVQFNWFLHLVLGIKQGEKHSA
Chain of PI3K a (P42336 whole entry): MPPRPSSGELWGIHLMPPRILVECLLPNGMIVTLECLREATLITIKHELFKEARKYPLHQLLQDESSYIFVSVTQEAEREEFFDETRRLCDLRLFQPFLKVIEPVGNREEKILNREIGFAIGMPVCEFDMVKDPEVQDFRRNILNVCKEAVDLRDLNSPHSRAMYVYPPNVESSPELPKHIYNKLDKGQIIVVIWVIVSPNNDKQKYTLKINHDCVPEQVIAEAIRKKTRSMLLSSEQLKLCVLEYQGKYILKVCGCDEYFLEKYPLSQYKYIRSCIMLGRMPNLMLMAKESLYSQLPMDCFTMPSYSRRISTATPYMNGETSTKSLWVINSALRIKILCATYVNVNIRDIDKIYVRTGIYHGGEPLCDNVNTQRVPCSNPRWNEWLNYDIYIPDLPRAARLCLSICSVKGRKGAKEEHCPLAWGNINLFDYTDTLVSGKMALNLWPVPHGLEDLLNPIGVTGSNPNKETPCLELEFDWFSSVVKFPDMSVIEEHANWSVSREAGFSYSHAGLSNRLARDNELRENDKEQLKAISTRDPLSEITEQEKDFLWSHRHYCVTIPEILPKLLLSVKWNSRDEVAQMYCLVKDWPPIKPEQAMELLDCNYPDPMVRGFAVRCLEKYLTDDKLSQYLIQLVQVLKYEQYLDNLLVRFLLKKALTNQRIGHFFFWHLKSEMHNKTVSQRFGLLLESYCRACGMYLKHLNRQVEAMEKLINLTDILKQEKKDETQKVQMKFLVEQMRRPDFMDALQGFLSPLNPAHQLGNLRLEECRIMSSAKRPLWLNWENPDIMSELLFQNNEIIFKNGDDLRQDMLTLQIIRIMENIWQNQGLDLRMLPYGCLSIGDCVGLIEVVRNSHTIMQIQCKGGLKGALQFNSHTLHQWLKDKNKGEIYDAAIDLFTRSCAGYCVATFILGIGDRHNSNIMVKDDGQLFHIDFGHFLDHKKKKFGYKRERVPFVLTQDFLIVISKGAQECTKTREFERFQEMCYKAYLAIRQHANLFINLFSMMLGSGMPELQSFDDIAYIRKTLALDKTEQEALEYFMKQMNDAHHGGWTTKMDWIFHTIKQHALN
Chain of PI3K a (P27986 whole entry partner): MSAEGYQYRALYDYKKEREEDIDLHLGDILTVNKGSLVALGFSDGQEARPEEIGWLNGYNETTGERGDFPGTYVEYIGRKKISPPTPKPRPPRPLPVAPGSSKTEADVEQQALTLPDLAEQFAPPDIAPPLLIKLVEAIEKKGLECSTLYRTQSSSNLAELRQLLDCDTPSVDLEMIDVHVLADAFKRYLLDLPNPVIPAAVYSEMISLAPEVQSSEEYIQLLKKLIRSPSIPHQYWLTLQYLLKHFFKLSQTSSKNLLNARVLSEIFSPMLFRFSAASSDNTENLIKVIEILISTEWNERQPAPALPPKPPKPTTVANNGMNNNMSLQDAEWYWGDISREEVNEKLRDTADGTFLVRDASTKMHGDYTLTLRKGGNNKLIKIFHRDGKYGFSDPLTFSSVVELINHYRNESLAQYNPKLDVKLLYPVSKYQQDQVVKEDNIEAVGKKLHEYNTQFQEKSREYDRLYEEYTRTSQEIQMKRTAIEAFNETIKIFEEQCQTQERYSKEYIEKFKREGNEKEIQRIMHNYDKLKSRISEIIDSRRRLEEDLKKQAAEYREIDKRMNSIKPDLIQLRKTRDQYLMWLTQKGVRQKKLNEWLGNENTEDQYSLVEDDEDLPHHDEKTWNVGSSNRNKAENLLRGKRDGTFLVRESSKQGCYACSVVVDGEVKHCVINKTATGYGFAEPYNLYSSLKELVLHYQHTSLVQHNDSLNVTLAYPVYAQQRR

inhibition at 10 µM [2]	inhibition at 10 µM [4]	GI50 [5]	inhibition at 10 µM [6]	GI50 [7]	GI50 [8]	inhibition at 10 µM [10]	GI50 [11]	Human Microsomal Metabolic Stability: Remaining % ([12]; human liver microsome S9)	Predicted in vivo clearance [12]	inhibition at 10 µM [13]	GI50 [14]	PCT_LBF % (percentage of compound removed compared to liver blood flow) [12]	microsomal CLint [12]	half-life [12]	mean cellular uptake ([15]; FCS negative group)	mean cellular uptake ([15]; FCS positive group (10% FCS))	detection in cell lysates by HPLC (in words) [15]	Structure (SMILES)	GI50 [1]	inhibition at 1 µM [3]	also measured
2.9%	51%	2.25 ± 0.06 µM	0.4%	10.8 ± 1 µM	45.6 ± 6.4 µM	-1%	5 ± 0.3 µM	2%	19 mL/min/kg	8%	–	–	–	–	–	–	–	CC(=O)NCCCCC(NC(=O)OC(C)(C)C)C(=O)N1CCN(c2cc[n+](CCCCCCCCCCCCCC[n+]3ccc(N(C)C)cc3)cc2)CC1 (centres unmarked) [CK145]	63.6 ± 10.4 µM	46 ± 1%	% Inhibition PIK4CB ([4]; 10 μM): 50.6%; in vitro conversion to CK146 or intermediates (in words) ([9]; 1 h and 2 h, HPLC): not observed; metabolic stability (in words) ([12]; human liver microsome S9): Rapid decomposition
4.9%	-24.1%	0.18 ± 0.01 µM	-16.1%	1.19 ± 0.04 µM	0.91 ± 0.13 µM	1%	0.5 ± 0.02 µM	92%	<10 mL/min/kg	8.6%	0.6 ± 0.1 µM	<45%	< 14 µL/min/mg	> 1.67 h	34.1 ± 0.6 % μg^−1 protein	24.9 ± 1.4 % μg^−1 protein	detected	CN(C)c1cc[n+](CCCCCCCCCCCC[n+]2ccc(N(C)C)cc2)cc1 [ICL-CCIC-0019]	0.47 ± 0.08 µM	–	cellular uptake relative to CK145 ([9]; 1 h and 2 h post-incubation): approximately two-fold
6.7%	47%	0.21 ± 0.01 µM	1.4%	3.09 ± 0.05 µM	4.98 ± 1.5 µM	-5.4%	2.5 ± 0.3 µM	127%	<10 mL/min/kg	1.1%	3.8 ± 0.9 µM	<45%	< 14 µL/min/mg	> 1.67 h	34.1 ± 0.6 % μg^−1 protein	24.9 ± 1.4 % μg^−1 protein	detected	CN(C)c1cc[n+](CCCCCCCCCCCCCC[n+]2ccc(N3CCNCC3)cc2)cc1 [CK146]	3 ± 0.26 µM	46 ± 1%	–
